The target of one assay is T1, Glucocorticoid receptor (Homo sapiens, UniProt P04150).
T1 sequence (P04150 whole entry): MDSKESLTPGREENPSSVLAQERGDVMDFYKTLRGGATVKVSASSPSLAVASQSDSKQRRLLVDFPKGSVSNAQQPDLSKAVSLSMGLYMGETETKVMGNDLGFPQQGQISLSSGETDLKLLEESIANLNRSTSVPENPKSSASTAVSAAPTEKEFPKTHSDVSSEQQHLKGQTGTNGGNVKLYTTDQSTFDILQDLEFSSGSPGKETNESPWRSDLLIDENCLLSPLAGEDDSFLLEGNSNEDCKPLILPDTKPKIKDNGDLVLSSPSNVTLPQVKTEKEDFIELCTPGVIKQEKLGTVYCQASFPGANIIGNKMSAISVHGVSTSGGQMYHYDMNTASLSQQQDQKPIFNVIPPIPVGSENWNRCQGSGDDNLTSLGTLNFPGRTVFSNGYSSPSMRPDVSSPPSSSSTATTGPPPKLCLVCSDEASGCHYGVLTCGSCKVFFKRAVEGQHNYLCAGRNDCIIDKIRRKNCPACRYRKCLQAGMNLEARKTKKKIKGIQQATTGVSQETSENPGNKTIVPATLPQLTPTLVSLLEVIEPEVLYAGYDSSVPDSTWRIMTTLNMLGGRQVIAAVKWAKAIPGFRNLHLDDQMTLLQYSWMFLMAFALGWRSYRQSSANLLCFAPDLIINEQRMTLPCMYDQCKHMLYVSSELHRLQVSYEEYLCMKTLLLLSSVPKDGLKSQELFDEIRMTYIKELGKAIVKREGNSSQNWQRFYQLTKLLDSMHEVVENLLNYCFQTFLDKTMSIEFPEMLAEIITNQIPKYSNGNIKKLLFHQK
Nature of the assay: Inhibition of human glucocorticoid receptor alpha isoform.

The test system of assay [1] is A549. Nature of the assay: Effective concentration for inhibition of interleukin-6 in human A549 lung carcinoma cell line using […]% radiolabeled Dexamethasone. The class given is functional, cell-based.
The species named for assay [2] is Mus musculus. Nature of the assay: Effective concentration required for inhibition of interleukin-6 in mouse thioglycolate-elicited peritoneal exudate cell line using 52% radiolabeled Dexamethasone. Type of assay: functional.
Assay [3] relates to A549. Nature of the assay: Effective concentration for inhibition of interleukin-6 in human A549 lung carcinoma cell line using 47% radiolabeled Dexamethasone. The class given is functional, cell-based.
Assay [4] is filed under the species Mus musculus. Nature of the assay: Effective concentration required for inhibition of interleukin-6 in mouse thioglycolate-elicited peritoneal exudate cell line using 57% radiolabeled Dexamethasone. The class given is functional.
The test system of assay [5] is A549. Nature of the assay: Effective concentration for inhibition of interleukin-6 in human A549 lung carcinoma cell line using 44% radiolabeled Dexamethasone. Type of assay: functional, cell-based.
Assay [6] relates to A549. Kind of assay: Effective concentration for inhibition of interleukin-6 in human A549 lung carcinoma cell line using 59% radiolabeled Dexamethasone. The class given is functional, cell-based.
The species named for assay [7] is Mus musculus. Kind of assay: Effective concentration required for inhibition of interleukin-6 in mouse thioglycolate-elicited peritoneal exudate cell line using 77% radiolabeled Dexamethasone. The class given is functional.
The species entered for assay [8] is Mus musculus. Kind of assay: Effective concentration required for inhibition of interleukin-6 in mouse thioglycolate-elicited peritoneal exudate cell line using 70% radiolabeled Dexamethasone. The class given is functional.
Assay [9] deals with A549. Kind of assay: Effective concentration for inhibition of interleukin-6 in human A549 lung carcinoma cell line using 64% radiolabeled Dexamethasone. Type of assay: functional, cell-based.
The species named for assay [10] is Mus musculus. Nature of the assay: Effective concentration required for inhibition of interleukin-6 in mouse thioglycolate-elicited peritoneal exudate cell line using 64% radiolabeled Dexamethasone. The class given is functional.

Regarding `C=C[C@@H]1CO[C@]2(CCC3=Cc4c(cnn4-c4ccc(F)cc4)C[C@@]32C)O1`, half-maximal inhibition against Glucocorticoid receptor (IC50) required 5.8 nM. Besides, the results for the EC50 in the assay with A549 [1] and in the assay filed under Mus musculus [2] were 9 nM and 168 nM, respectively.
As for `C=C[C@H]1CO[C@]2(CCC3=Cc4c(cnn4-c4ccc(F)cc4)C[C@@]32C)O1`, at Glucocorticoid receptor, the concentration for half-maximal inhibition (IC50) was determined as 5.6 nM. Also, the EC50 in the assay on A549 [3] came to 25 nM; in the assay filed under Mus musculus [4], 183 nM.
On to `C[C@@H]1CC(C)(C)O[C@]2(CCC3=Cc4c(cnn4-c4ccc(F)cc4)C[C@@]32C)O1`, for which the IC50 against Glucocorticoid receptor came to 2.2 nM. Moreover, in the assay on A549 [5], the EC50 was determined as 12 nM.
As to `C[C@@H]1CC(C)(C)O[C@@]2(CCC3=Cc4c(cnn4-c4ccc(F)cc4)C[C@@]32C)O1`, the EC50 in the assay with A549 [6] came out at 25 nM; in the assay listed under Mus musculus [7], 18 nM. Also, the IC50 at Glucocorticoid receptor was 2.1 nM.
`C[C@]12Cc3cnn(-c4ccc(F)cc4)c3C=C1CC[C@]21OC[C@@H](c2ccccc2)O1` came in with an IC50 on Glucocorticoid receptor of 8.5 nM. This compound also registered an EC50 in the assay filed under Mus musculus [8] of 91 nM.
In turn, `C[C@@H]1C[C@H](C)O[C@@]2(CCC3=Cc4c(cnn4-c4ccc(F)cc4)C[C@@]32C)O1` came in with a half-maximal inhibitory concentration (IC50) against Glucocorticoid receptor of 3.1 nM. In addition, the EC50 in the assay with A549 [9] is 26 nM; in the assay filed under Mus musculus [10] it was 19 nM.

The IC50 is the concentration that inhibits the measured activity by half. Broadly, the EC50 is the concentration needed to bring the measured effect to its halfway point. Low readings indicate a more potent agent, high ones a less potent agent.

The values are drawn from ChEMBL document CHEMBL1139605, “Novel ketal ligands for the glucocorticoid receptor: in vitro and in vivo activity” (Bioorg Med Chem Lett, 2005).
